Source: ChEMBL document CHEMBL1128142, “2-aryl-indolyl maleimides - novel and potent inhibitors of protein kinase C” (Bioorg Med Chem Lett, 1995)

Experiments:
MCF7 = assay: Inhibition of adriamycin-resistant breast tumor line MCF-7/ADR-RE proliferation; assay type: functional; conditions: Homo sapiens
[1] = biological target: Protein kinase C beta type (Homo sapiens, UniProt P05771); assay: Inhibition of protein kinase C beta
MDA-N = assay: Inhibition of breast tumor lines(MDA-N) proliferation; assay type: functional; conditions: Homo sapiens
[2] = biological target: T1, Protein kinase C epsilon type (Homo sapiens, UniProt Q02156); assay: Inhibition of Protein kinase C epsilon
T1 sequence (Q02156 whole entry): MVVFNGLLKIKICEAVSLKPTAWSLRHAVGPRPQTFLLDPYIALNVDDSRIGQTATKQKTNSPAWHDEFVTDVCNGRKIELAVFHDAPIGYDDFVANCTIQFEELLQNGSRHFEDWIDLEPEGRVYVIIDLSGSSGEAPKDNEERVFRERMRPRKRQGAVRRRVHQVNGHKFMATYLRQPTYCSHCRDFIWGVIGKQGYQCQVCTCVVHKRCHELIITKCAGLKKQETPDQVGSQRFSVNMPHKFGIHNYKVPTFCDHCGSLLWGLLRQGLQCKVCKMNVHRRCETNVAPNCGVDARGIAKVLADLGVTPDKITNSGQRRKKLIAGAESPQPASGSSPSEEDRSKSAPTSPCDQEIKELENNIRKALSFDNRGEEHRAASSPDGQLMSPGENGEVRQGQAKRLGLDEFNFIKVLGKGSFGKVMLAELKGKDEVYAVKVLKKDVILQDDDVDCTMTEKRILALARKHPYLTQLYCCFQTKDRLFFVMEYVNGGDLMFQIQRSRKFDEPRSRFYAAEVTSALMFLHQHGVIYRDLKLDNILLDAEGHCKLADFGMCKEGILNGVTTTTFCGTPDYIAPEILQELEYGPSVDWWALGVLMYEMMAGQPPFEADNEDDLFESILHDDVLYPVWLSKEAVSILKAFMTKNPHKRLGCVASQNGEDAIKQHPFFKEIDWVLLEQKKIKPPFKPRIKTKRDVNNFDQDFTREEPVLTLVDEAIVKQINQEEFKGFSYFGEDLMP

Sequence of Protein kinase C beta type (P05771 whole entry): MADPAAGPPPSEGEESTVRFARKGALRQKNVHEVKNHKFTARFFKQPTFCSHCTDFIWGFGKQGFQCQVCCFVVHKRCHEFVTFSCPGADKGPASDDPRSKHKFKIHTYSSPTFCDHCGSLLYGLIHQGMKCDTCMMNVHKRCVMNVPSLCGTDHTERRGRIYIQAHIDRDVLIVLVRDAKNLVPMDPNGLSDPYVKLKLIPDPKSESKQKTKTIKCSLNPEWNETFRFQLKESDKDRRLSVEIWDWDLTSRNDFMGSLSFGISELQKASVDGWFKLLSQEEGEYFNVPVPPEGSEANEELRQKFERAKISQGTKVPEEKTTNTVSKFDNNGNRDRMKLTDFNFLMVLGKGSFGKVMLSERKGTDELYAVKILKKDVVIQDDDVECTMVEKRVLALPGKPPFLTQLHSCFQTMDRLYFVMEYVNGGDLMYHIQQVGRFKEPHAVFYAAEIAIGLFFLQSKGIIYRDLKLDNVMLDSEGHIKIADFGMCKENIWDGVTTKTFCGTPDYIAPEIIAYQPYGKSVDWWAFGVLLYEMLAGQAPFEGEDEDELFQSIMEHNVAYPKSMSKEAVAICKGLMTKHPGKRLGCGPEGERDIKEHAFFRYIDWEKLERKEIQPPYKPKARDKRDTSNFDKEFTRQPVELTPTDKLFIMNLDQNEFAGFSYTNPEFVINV

| Compound | GI50 (MCF7) [nM] | IC50 [1] [nM] | GI50 (MDA-N) [nM] | IC50 [2] [nM] |
| --- | --- | --- | --- | --- |
| CN(C)CCCn1c(-c2cc3ccccc3s2)c(C2=CC(=O)NC2=O)c2ccccc21 | 100 |  |  |  |
| N=C(N)SCCCn1c(-c2cc3ccccc3s2)c(C2=CC(=O)NC2=O)c2ccccc21 | 20 | 3 | < 10 | 10 |
| N=C(N)SCCCn1cc(C2=CC(=O)NC2=O)c2ccccc21 | 20 |  |  |  |
